What was measured:
[1] = tested on: Drosophila melanogaster tyramine receptor (TyrR), SEQ ID NO: 2; assay: Inhibition of 3H-tyramine binding to membranes of Schneider cells expressing TyrR; conditions: compared with tyramine, FIG. 4
Protocol: Phage DNA is purified from this library using a liquid culture lysate.
In order to determine the pharmacological profile of tyramine receptor (TyrR), the ability of a number of putative Drosophila neurotransmitters to displace ^3H-tyramine (^3H-TA) binding from membranes expressing tyramine receptor is tested.

[2] = target: T1, tyramine receptor (TyrR) (Drosophila melanogaster, UniProt P22270); assay: Saturation binding of ^3H-tyramine to membranes from Schneider cells expressing tyramine receptor; conditions: saturation binding, membranes expressing TyrR
T1 sequence (P22270 27-601): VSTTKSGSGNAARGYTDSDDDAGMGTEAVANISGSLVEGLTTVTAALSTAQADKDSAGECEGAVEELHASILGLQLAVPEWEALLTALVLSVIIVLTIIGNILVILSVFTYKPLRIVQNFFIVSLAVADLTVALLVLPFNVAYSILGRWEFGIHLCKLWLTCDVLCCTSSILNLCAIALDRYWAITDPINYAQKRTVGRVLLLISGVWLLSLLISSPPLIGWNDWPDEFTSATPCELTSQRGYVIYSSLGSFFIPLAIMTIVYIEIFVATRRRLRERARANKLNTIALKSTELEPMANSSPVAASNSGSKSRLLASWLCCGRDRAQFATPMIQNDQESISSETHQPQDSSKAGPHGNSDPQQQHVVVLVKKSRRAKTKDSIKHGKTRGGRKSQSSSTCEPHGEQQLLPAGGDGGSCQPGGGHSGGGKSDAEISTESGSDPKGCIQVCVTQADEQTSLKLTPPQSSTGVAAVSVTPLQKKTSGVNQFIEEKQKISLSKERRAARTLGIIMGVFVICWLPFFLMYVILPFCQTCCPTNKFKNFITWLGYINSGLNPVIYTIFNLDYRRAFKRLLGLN
Protocol: A preliminary study to determine the optimum concentration of membrane protein for receptor binding activity is performed. […] After about 1 hr incubation at room temperature, reactions are terminated by filtration through GF/C filters (VWR), which have been previously soaked in about 0.3% polyethyleneimine (PEI). The filters are washed one time with about 4 ml ice cold Iris buffer and air dried before the retained radioactivity is measured using LSC. Binding data is analyzed by curve fitting (GraphPad software, Prism).
Receptor binding reactions are incubated for about 1 hr at room temperature (RT) in restricted light. Reactions are terminated by filtration through OF/C filters (VWR), which have been previously soaked in about 0.3% polyethyleneimine (PEI). The filters are washed one time with about 4 ml ice cold Tris buffer and air dried before retained radioactivity is measured using LSC. Binding data is analyzed by curve fitting (GraphPad software, Prism).

SMILES	displacing 3H-tyramine binding [1]	Bmax [2]	Kd [2]
NCCc1ccc(O)c(O)c1 [Dopamine]	less efficient than tyramine		
NCCc1ccc(O)cc1 [^3H-tyramine]		about 0.679 pmol/mg protein	~1.26 nM
NCC(O)c1ccc(O)cc1 (centres unmarked) [Octopamine]	less efficient than tyramine		
NCCc1c[nH]c2ccc(O)cc12 [Serotonin]	less efficient than tyramine		
